Results as given in patent US20140163096A1, “METHODS AND COMPOSITIONS FOR TREATING HIV-ASSOCIATED DIARRHEA” (priority 2012, published 2014).

Assays:
HIV-positive patients = settings: human, in vivo
mice = experiment: 13-week oral toxicity study in mice; settings: mouse, in vivo
Description: One additional group of 15 animals/sex served as the control and received the vehicle, purified water.
Observations for morbidity, mortality, injury, and the availability of food and water were conducted twice daily for all animals. Detailed clinical observations for clinical signs were conducted weekly on all main study animals. Body weights were measured and recorded weekly on all animals. Food consumption was measured and recorded weekly on all main study animals. Ophthalmoscopic examinations were conducted pretest and prior to necropsy for all main study animals. Blood samples for clinical pathology evaluations were collected from main study animals in extremis and at termination. […] Beginning on Day 7, a limited gross necropsy examination was performed on any TK animal euthanized in extremis or found dead in an effort to determine the cause of death.

[1] = Bacterial reverse mutation assay
[2] = human, in vivo; cited from earlier work
rat bone marrow = settings: in vivo

Crofelemer
adverse events reported in greater than or equal to 1% and less than 2% of patients, at a higher incidence than placebo (HIV-positive patients): dizziness, muscle spasms, myalgia, and pain in extremity | adverse reactions in patients who received doses greater than 250 mg daily (HIV-positive patients): similar | safety profile by baseline CD4 cell count (HIV-positive patients): similar | clinical pathology, organ weight, and macroscopic effects (mice): observed in both sexes at 1200 mg/kg/day | food consumption effects (mice): evident at 40 mg/kg/day in females and ≧400 mg/kg/day in both sexes | bacterial reverse mutation assay result [1]: negative | systemic bioavailability [2]: virtually no systemic bioavailability | rat bone marrow micronucleus assay result (rat bone marrow): negative
